Values of other authors as cited in publication PMC10643470, “Knockout or inhibition of USP30 protects dopaminergic neurons in a Parkinson’s disease mouse model” (Nature Communications, 2023).

Key:
[1] = system: SHSY5Y neuroblastoma cells; set-up: method as in PMID 32636217; settings: SHSY5Y neuroblastoma cells ref 42; cited from earlier work
[2] = system: SHSY5Y neuroblastoma cells; set-up: method as in PMID 32636217; settings: SHSY5Y neuroblastoma cells ref 42; cited from earlier work; remark: listed apart in the source
USP30 = settings: cited from earlier work

Row | Structure (SMILES) | Ubiquitylation of TOM20 [1] | Mitophagy levels [2] | USP30 inhibition in biochemical assays (USP30)
1 | N#CN1CC[C@@H](NC(=O)c2cc(-c3ccccc3Oc3ccccc3)n[nH]2)C1 [FT3967385] | significantly increases | significantly increases | 
2 | CC(C)(C)NS(=O)(=O)c1cccc2c(NC(=O)[C@H](Cc3ccccc3)NC(=O)C3CCCCC3)cccc12 [MF-094] |  |  | identified as USP30 inhibitors
3 | CC(C)(C)NS(=O)(=O)c1cccc2c(NC(=O)[C@H](Cc3ccccc3)NC(=O)C3CC3)cccc12 [MF-095] |  |  | identified as USP30 inhibitors
